Experimental data as given in paper PMC12483148 (2025).
One block for each compound: values may come before it.

Columns and labels:
Assay in all cases: BLI, steady state fit
[1] = system: SAM-I riboswitch (3'-biotinylated) (RNA, riboswitch) GGCUUAUCAAGAGAGGUGGAGGGACUGGCCCGACGAAACCCGGCAACCAGAAAUGGUGCCAAUUCCUGCAGCGGAAACGUUGAAAGAUGAGCCG; details: 150 mM Na+, 2 mM Mg2+, 10 mM HEPES pH 7.4, 0.005% Surfactant P20, RNA immobilised
[2] = system: TPP riboswitch (3'-biotinylated) (RNA, riboswitch) CAGUACUCGGGGUGCCCUUCUGCGUGAAGGCUGAGAAAUACCCGUAUCACCUGAUCUGGAUAAUGCCAGCGUAGGGAAGUGCUG; details: 150 mM Na+, 2 mM Mg2+, 10 mM HEPES pH 7.4, 0.005% Surfactant P20, RNA immobilised
[3] = system: FMN riboswitch (3'-biotinylated) (RNA, riboswitch) GAUCUUCAGGGCGGGGUGAAAUUCCCCACCGGCGGUACAGCCCGCGAGCCCAGGAAACUGGGCAGACUUGGUGAAACUCCAAGGCCGACAGUAAAGUCUGGAUGAAAGAAGAUC; details: 150 mM Na+, 2 mM Mg2+, RNA immobilised
[4] = 10 mM HEPES pH 7.4, 0.005% Surfactant P20

- KD,stead [1]: 0.17 µM
SMILES: C[S+](CC[C@H](N)C(=O)O)C[C@H]1O[C@@H](n2cnc3c(N)ncnc32)[C@H](O)[C@@H]1O (stereo partly shown)

- KD,stead ([2]; single measurement, low signal-to-noise): 0.016 µM
SMILES: Cc1ncc(C[n+]2csc(CCOP(=O)(O)OP(=O)(O)O)c2C)c(N)n1

- KD,stead [3, 4]: 0.043 µM
SMILES: Cc1cc2nc3c(=O)[nH]c(=O)nc-3n(C[C@H](O)[C@H](O)[C@H](O)COP(=O)(O)O)c2cc1C

- KD,stead ([2]; b29 says 10 μM): 7.0 µM
SMILES: Cc1ncc(C[n+]2csc(CCO)c2C)c(N)n1

Continued, compound first:

SMILES: Nc1ncnc2c1ncn2[C@@H]1O[C@H](CSCC[C@H](N)C(=O)O)[C@@H](O)[C@H]1O
- KD,stead ([1]; highest concentration 500 μM): 545 µM

SMILES: O=C(NCc1ccc[nH]1)c1ccc2[nH]cnc2c1
- KD,stead ([3]; HBS-P+ pH 7.4, 5% DMSO, apparent): 14 µM

SMILES: O=c1cc(-c2cccs2)nc(C2CCCNC2)[nH]1 (stereo not shown)
- KD,stead [3, 4]: 48 µM
